“And” between values parts separate entries of the source, which are not always exact repeats. Equal entries are not always repeated. Inconclusive results and toxic doses are left out.
Test system: CD2F1 mice, L1210 leukemia ip, survival T/C
Assay: NCI In Vivo Anticancer Drug Screen. Data for tumor model L1210 Leukemia (intraperitoneal) in CD2F1 (CDF1) mice
Conditions: higher = longer survival
Procedure, shortened: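 Tumor-bearing mice (transplanted tumor) were split into treated and vehicle control groups, and the measured endpoint of each treated group was divided by that of its vehicle controls.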

[1] = endpoint: mean survival time, dose: 100.0 mg/kg/injection, schedule: Q01DX001 (ip), vehicle: saline
[2] = endpoint: mean survival time, dose: 200.0 mg/kg/injection, schedule: Q01DX001 (ip), vehicle: saline
[3] = endpoint: mean survival time, dose: 100.0 mg/kg/injection, schedule: Q01DX009 (ip), vehicle: saline with Tween-80
[4] = endpoint: mean survival time, dose: 100.0 mg/kg/injection, schedule: Q04DX003 (ip), vehicle: saline with Tween-80
[5] = endpoint: mean survival time, dose: 200.0 mg/kg/injection, schedule: Q01DX009 (ip), vehicle: saline with Tween-80
[6] = endpoint: mean survival time, dose: 200.0 mg/kg/injection, schedule: Q04DX003 (ip), vehicle: saline with Tween-80
[7] = endpoint: mean survival time, dose: 400.0 mg/kg/injection, schedule: Q01DX009 (ip), vehicle: saline with Tween-80
[8] = endpoint: mean survival time, dose: 400.0 mg/kg/injection, schedule: Q04DX003 (ip), vehicle: saline with Tween-80
[9] = endpoint: mean survival time, dose: 100.0 mg/kg/injection, schedule: Q01DX001 (ip), vehicle: saline with Tween-80
[10] = endpoint: mean survival time, dose: 100.0 mg/kg/injection, schedule: Q04DX003 (ip), vehicle: saline
[11] = endpoint: mean survival time, dose: 200.0 mg/kg/injection, schedule: Q04DX003 (ip), vehicle: saline
[12] = endpoint: mean survival time, dose: 100.0 mg/kg/injection, schedule: Q04DX002 (ip), vehicle: saline with Tween-80

In the case of `COC(OC)C1C=CC=CC=C1`, the T/C (endpoint: mean survival time, dose: 100.0 mg/kg/injection, schedule: Q04DX003 (ip), vehicle: saline sonified) is reported as 92 % of control, the T/C (endpoint: mean survival time, dose: 200.0 mg/kg/injection, schedule: Q04DX003 (ip), vehicle: saline sonified) is reported as 94 % of control and the T/C (endpoint: mean survival time, dose: 400.0 mg/kg/injection, schedule: Q04DX003 (ip), vehicle: saline sonified) is reported as 90 % of control.
With `NC(C=O)C(O)C(O)C(O)CO` (stereo unspecified) the T/C (endpoint: mean survival time, dose: 100.0 mg/kg/injection, schedule: Q04DX002 (ip), vehicle: saline) was 97 % of control, the T/C (endpoint: mean survival time, dose: 200.0 mg/kg/injection, schedule: Q04DX002 (ip), vehicle: saline) was 97 % of control and the T/C (endpoint: mean survival time, dose: 400.0 mg/kg/injection, schedule: Q04DX002 (ip), vehicle: saline) was 97 % of control.
`CC(=O)OC1CCC2(C)C(CCC3C2CCC2(C)C(C(C)=O)CCC32)C1` (stereo unspecified) was tested, and the T/C (endpoint: mean survival time, dose: 100.0 mg/kg/injection, schedule: Q04DX003 (sc), vehicle: steriod suspending solution) was 103 % of control, the T/C (endpoint: mean survival time, dose: 200.0 mg/kg/injection, schedule: Q04DX003 (sc), vehicle: steriod suspending solution) was 97 % of control and the T/C (endpoint: mean survival time, dose: 400.0 mg/kg/injection, schedule: Q04DX003 (sc), vehicle: steriod suspending solution) was 107 % of control.
`CCCCCCCCC(CCCCCC)CCCCCCCC` was tested, and the T/C [1] was 96 % of control, the T/C [2] was 96 % of control and the T/C (endpoint: mean survival time, dose: 400.0 mg/kg/injection, schedule: Q01DX001 (ip), vehicle: saline) was 97 % of control.
With `NCc1ccccc1` the T/C [3] was 96 % of control, the T/C (endpoint: mean survival time, dose: 100.0 mg/kg/injection, schedule: Q04DX003 (ip), vehicle: acetone) was 110 % of control and the T/C [4] was 99 % of control. For the same compound, the T/C [5] was 100 % of control, the T/C (endpoint: mean survival time, dose: 200.0 mg/kg/injection, schedule: Q04DX003 (ip), vehicle: acetone) was 108 % of control and the T/C [6] was 99 % of control. For the same compound, the T/C [7] was 98 % of control, the T/C (endpoint: mean survival time, dose: 400.0 mg/kg/injection, schedule: Q04DX003 (ip), vehicle: acetone) was 97 % of control and the T/C [8] was 97 % of control.
For `Cc1cc(Cl)ccc1OCC(=O)Nc1nc(N)nc(N)n1`, the T/C [3] was 105 % of control, the T/C [4] was 89 % of control and the T/C [5] was 102 % of control. For the same compound, the T/C [6] was 90 % of control, the T/C [7] was 100 % of control and the T/C [8] was 101 % of control.
With `CNC(=O)c1ccccc1N=NN(C)C` the T/C (endpoint: mean survival time, dose: 18.75 mg/kg/injection, schedule: Q01DX009 (ip), vehicle: Klucel (hydroxypropylcellulose) (HPC)) was 98 % of control and 103 % of control and 106 % of control, the T/C (endpoint: mean survival time, dose: 37.5 mg/kg/injection, schedule: Q01DX009 (ip), vehicle: Klucel (hydroxypropylcellulose) (HPC)) was 122 % of control and 98 % of control and 105 % of control and the T/C (endpoint: mean survival time, dose: 75.0 mg/kg/injection, schedule: Q01DX009 (ip), vehicle: Klucel (hydroxypropylcellulose) (HPC)) was 122 % of control.
`C1CCC(CCC2CCCC[N-]2)[N-]C1.[I][Zn][I]` (stereo unspecified) was tested, and the T/C (endpoint: mean survival time, dose: 25.0 mg/kg/injection, schedule: Q01DX001 (ip), vehicle: saline with Tween-80) was 107 % of control, the T/C (endpoint: mean survival time, dose: 50.0 mg/kg/injection, schedule: Q01DX001 (ip), vehicle: saline with Tween-80) was 86 % of control and the T/C [9] was 86 % of control. The T/C [1] was 103 % of control and the T/C [2] was 100 % of control.
For `OB(O)Oc1ccc(Br)cc1`, the T/C (endpoint: mean survival time, dose: 50.0 mg/kg/injection, schedule: Q01DX009 (ip), vehicle: other) was 95 % of control, the T/C (endpoint: mean survival time, dose: 100.0 mg/kg/injection, schedule: Q01DX009 (ip), vehicle: other) was 91 % of control and the T/C (endpoint: mean survival time, dose: 200.0 mg/kg/injection, schedule: Q01DX009 (ip), vehicle: other) was 102 % of control.
With `CC1=CC(=Nc2ccc(N(CCCl)CCCl)cc2)C=C(C)C1=O` the T/C (endpoint: mean survival time, dose: 6.25 mg/kg/injection, schedule: Q01DX009 (ip), vehicle: Klucel (hydroxypropylcellulose) (HPC)) was 115 % of control and 108 % of control and the T/C (endpoint: mean survival time, dose: 100.0 mg/kg/injection, schedule: Q01DX009 (ip), vehicle: Klucel (hydroxypropylcellulose) (HPC)) was 86 % of control and 96 % of control.
With `Cc1ccc(S(=O)(=O)N/N=C/Cc2c(C)cc(C)cc2C)cc1` the T/C (endpoint: median survival time, dose: 25.0 mg/kg/injection, schedule: Q04DX002 (ip), vehicle: saline with Tween-80) was 100 % of control, the T/C (endpoint: median survival time, dose: 50.0 mg/kg/injection, schedule: Q04DX002 (ip), vehicle: saline with Tween-80) was 100 % of control and the T/C (endpoint: median survival time, dose: 100.0 mg/kg/injection, schedule: Q04DX002 (ip), vehicle: saline with Tween-80) was 100 % of control. For the same compound, the T/C (endpoint: median survival time, dose: 200.0 mg/kg/injection, schedule: Q04DX002 (ip), vehicle: saline with Tween-80) was 110 % of control.
In the case of `Nc1ccc(-c2nc(N)[nH]c(=O)c2N)cc1`, the T/C [9] is reported as 96 % of control, the T/C (endpoint: mean survival time, dose: 200.0 mg/kg/injection, schedule: Q01DX001 (ip), vehicle: saline with Tween-80) is reported as 92 % of control and the T/C (endpoint: mean survival time, dose: 400.0 mg/kg/injection, schedule: Q01DX001 (ip), vehicle: saline with Tween-80) is reported as 88 % of control.
`COc1ccc(-c2c(C(=O)NCCc3ccccc3)[nH]c(-c3ccccc3)c2-c2ccccc2)cc1` was tested, and the T/C (endpoint: mean survival time, dose: 75.0 mg/kg/injection, schedule: Q01DX001 (ip), vehicle: saline) was 95 % of control and the T/C (endpoint: mean survival time, dose: 150.0 mg/kg/injection, schedule: Q01DX001 (ip), vehicle: saline) was 98 % of control.
For `CCOC(=O)C1(C(=O)OCC)CC2(COC(c3ccccc3)OC2)C1`, the T/C [10] was 97 % of control, the T/C [11] was 97 % of control and the T/C (endpoint: mean survival time, dose: 400.0 mg/kg/injection, schedule: Q04DX003 (ip), vehicle: saline) was 95 % of control.
`CC(Cc1ccccc1)NC(C)Cc1ccccc1` (stereo unspecified) was tested, and the T/C [4] was 98 % of control and the T/C [6] was 102 % of control.
`CC(=O)OC1COC(n2c(=S)n(-c3ccccc3)c(=N)c3ccccc32)C(OC(C)=O)C1OC(C)=O` (stereo unspecified) was tested, and the T/C (endpoint: mean survival time, dose: 12.5 mg/kg/injection, schedule: Q01DX005 (ip), vehicle: distilled water + Tween-80) was 90 % of control, the T/C (endpoint: mean survival time, dose: 25.0 mg/kg/injection, schedule: Q01DX005 (ip), vehicle: distilled water + Tween-80) was 87 % of control and the T/C (endpoint: mean survival time, dose: 50.0 mg/kg/injection, schedule: Q01DX005 (ip), vehicle: distilled water + Tween-80) was 93 % of control. The T/C (endpoint: mean survival time, dose: 200.0 mg/kg/injection, schedule: Q01DX005 (ip), vehicle: distilled water + Tween-80) was 92 % of control.
In the case of `COc1ccc(C2=CSc3ccccc3N2)cc1`, the T/C [12] is reported as 96 % of control and the T/C (endpoint: mean survival time, dose: 200.0 mg/kg/injection, schedule: Q04DX002 (ip), vehicle: saline with Tween-80) is reported as 104 % of control.
In the case of `CN1C(=O)C=CC1=O`, the T/C (endpoint: mean survival time, dose: 0.5 mg/kg/injection, schedule: Q01DX009 (ip), vehicle: saline) is reported as 101 % of control, the T/C (endpoint: mean survival time, dose: 1.0 mg/kg/injection, schedule: Q01DX009 (ip), vehicle: saline) is reported as 95 % of control and the T/C (endpoint: mean survival time, dose: 2.0 mg/kg/injection, schedule: Q01DX009 (ip), vehicle: saline) is reported as 93 % of control. The T/C (endpoint: mean survival time, dose: 4.0 mg/kg/injection, schedule: Q01DX009 (ip), vehicle: saline) was 95 % of control.
In the case of `CC1=CC(CO)C2C(=O)NC(=O)C2C1C` (stereo unspecified), the T/C (endpoint: mean survival time, dose: 100.0 mg/kg/injection, schedule: Q01DX001 (ip), vehicle: Klucel (hydroxypropylcellulose) (HPC)) is reported as 98 % of control, the T/C (endpoint: mean survival time, dose: 200.0 mg/kg/injection, schedule: Q01DX001 (ip), vehicle: Klucel (hydroxypropylcellulose) (HPC)) is reported as 105 % of control and the T/C (endpoint: mean survival time, dose: 400.0 mg/kg/injection, schedule: Q01DX001 (ip), vehicle: Klucel (hydroxypropylcellulose) (HPC)) is reported as 105 % of control.
For `BrCC12CCC1(CBr)COC2` (stereo unspecified), the T/C (endpoint: mean survival time, dose: 100.0 mg/kg/injection, schedule: Q04DX003 (ip), vehicle: other) was 102 % of control, the T/C (endpoint: mean survival time, dose: 200.0 mg/kg/injection, schedule: Q04DX003 (ip), vehicle: other) was 107 % of control and the T/C (endpoint: mean survival time, dose: 400.0 mg/kg/injection, schedule: Q04DX003 (ip), vehicle: other) was 96 % of control.
For `NC(=O)C1=C(CCCCl)c2ccccc2C1=O`, the T/C (endpoint: mean survival time, dose: 50.0 mg/kg/injection, schedule: Q04DX003 (ip), vehicle: saline) was 112 % of control, the T/C [1] was 102 % of control and the T/C [10] was 115 % of control. The T/C [2] was 95 % of control and the T/C [11] was 90 % of control.
In the case of `CC(=O)Oc1cc2c(cc1C(C)C)CCC1C(C)(C#N)CCCC21C` (stereo unspecified), the T/C [3] is reported as 90 % of control, the T/C [4] is reported as 89 % of control and the T/C [5] is reported as 95 % of control. The T/C [6] was 87 % of control, the T/C [7] was 92 % of control and the T/C [8] was 98 % of control.
With `NC(CSS(=O)(=O)O)=NCCc1cccs1` the T/C (endpoint: mean survival time, dose: 12.5 mg/kg/injection, schedule: Q04DX002 (ip), vehicle: saline with Tween-80) was 97 % of control and the T/C (endpoint: mean survival time, dose: 25.0 mg/kg/injection, schedule: Q04DX002 (ip), vehicle: saline with Tween-80) was 105 % of control.
In the case of `O=C(CC(NC(=O)OCc1ccccc1)C(=O)O)OCc1ccccc1` (stereo unspecified), the T/C [4] is reported as 103 % of control, the T/C [6] is reported as 95 % of control and the T/C [8] is reported as 102 % of control.
In the case of `CC1C(=O)OC2C1CCC1(C)C3OC3C(=O)C3(C)OC231` (stereo unspecified), the T/C [12] is reported as 96 % of control.
With `COc1cc2c(c(OC)c1OC)-c1ccc(OC)c(=O)cc1[C@@H](N(C)C(C)=O)CC2` the T/C (endpoint: mean survival time, dose: 0.06 mg/kg/injection, schedule: Q01DX005 (ip), vehicle: Klucel (hydroxypropylcellulose) (HPC)) was 103 % of control, the T/C (endpoint: mean survival time, dose: 0.13 mg/kg/injection, schedule: Q01DX005 (ip), vehicle: Klucel (hydroxypropylcellulose) (HPC)) was 104 % of control and the T/C (endpoint: mean survival time, dose: 0.25 mg/kg/injection, schedule: Q01DX005 (ip), vehicle: Klucel (hydroxypropylcellulose) (HPC)) was 110 % of control. The T/C (endpoint: mean survival time, dose: 1.0 mg/kg/injection, schedule: Q01DX005 (ip), vehicle: Klucel (hydroxypropylcellulose) (HPC)) was 150 % of control.
